Active and inactive are the calls of the source. The calls are words filed in the database; no cut-off is given here.
Legend:
[1] = system: NCI-H460; assay: Inhibition of Dvl PDZ domain interaction with Fz protein in human NCI-H460 cells assessed as induction of apoptosis at 10 uM after 3 days by annexin V-FITC staining-based flow cytometry (reference value: 7.59 to 10.24%); format: cell-based; parameters: scale not given: the % may be the effect or the level left
[2] = system: LOX; assay: Inhibition of Dvl PDZ domain interaction with Fz protein in human LOX cells assessed as induction of apoptosis at 10 uM after 3 days by annexin V-FITC staining-based flow cytometry (reference value: 8.81 to 10.85%); format: cell-based; parameters: scale not given: the % may be the effect or the level left
[3] = Antitumor activity against human LOX cells xenografted in immune deficient nude mouse assessed as tumor growth inhibition at 50 mg/kg, ip administered for 14 days measured after 2 weeks post last dose relative to control; format: functional; conditions: 336 h, read-out: TGI
[4] = Antitumor activity against human NCI-H460 cells xenografted in immune deficient nude mouse assessed as tumor growth inhibition at 50 mg/kg, ip administered for 14 days measured after 2 weeks post last dose relative to control; format: functional; conditions: 336 h, read-out: TGI
[5] = molecular target: T1, Membrane-associated guanylate kinase, WW and PDZ domain-containing protein 3 (Homo sapiens) (UniProt Q5TCQ9); assay: Inhibition of fluorescein labeled PFDEDQHTQITWV-COOH interaction with GST-fused MAGI-3 second PDZ domain (unknown origin) expressed in Escherichia coli BL21 (DE3) by fluorescence polarization assay
T1 sequence (whole entry): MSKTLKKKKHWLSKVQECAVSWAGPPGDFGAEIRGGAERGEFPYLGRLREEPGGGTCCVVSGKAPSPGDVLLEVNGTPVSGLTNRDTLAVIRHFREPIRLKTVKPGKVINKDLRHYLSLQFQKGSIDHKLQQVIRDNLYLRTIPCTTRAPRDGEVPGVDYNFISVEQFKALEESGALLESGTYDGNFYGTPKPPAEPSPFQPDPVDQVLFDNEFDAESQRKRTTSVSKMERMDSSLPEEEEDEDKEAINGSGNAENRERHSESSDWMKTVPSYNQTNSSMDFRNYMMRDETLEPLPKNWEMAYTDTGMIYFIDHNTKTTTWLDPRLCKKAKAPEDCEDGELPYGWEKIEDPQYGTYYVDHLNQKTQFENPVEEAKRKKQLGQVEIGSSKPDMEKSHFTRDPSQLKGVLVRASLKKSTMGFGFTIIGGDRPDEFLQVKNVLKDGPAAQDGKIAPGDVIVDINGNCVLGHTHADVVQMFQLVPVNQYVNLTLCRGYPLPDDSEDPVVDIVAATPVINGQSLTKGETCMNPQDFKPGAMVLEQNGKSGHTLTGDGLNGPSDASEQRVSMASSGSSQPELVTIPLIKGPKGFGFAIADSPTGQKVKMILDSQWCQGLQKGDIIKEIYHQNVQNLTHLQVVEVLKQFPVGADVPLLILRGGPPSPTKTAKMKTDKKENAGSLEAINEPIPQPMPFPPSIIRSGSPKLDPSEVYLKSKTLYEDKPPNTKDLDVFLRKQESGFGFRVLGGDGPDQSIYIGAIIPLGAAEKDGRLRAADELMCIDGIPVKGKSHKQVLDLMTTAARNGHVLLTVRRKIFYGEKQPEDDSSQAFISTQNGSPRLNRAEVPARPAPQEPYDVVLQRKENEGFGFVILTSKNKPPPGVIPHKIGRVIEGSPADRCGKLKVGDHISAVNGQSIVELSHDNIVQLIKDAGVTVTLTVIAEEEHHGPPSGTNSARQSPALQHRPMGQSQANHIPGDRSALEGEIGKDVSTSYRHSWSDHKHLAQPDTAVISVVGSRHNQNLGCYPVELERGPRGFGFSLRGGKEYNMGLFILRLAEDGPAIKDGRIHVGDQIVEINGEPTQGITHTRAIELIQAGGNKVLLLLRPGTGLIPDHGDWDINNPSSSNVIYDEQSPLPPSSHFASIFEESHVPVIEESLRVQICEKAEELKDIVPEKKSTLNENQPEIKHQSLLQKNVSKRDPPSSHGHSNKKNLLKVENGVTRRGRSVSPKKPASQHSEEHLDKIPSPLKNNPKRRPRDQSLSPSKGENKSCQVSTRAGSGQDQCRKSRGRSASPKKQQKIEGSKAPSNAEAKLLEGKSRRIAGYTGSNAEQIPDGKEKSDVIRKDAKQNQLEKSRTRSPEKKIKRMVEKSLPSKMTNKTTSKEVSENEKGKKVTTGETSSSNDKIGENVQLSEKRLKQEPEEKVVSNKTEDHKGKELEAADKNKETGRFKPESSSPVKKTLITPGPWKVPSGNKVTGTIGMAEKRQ

SMILES | Activity [1] [%] | Activity [2] [%] | inhibition in vivo at 50 mg/kg [3] [%] | inhibition in vivo at 50 mg/kg [4] [%] | inhibition [5]
Cc1cc2[nH]c(C(O)c3ccccc3)c(CCCc3ccccc3)c2cc1C(=O)O (centres undefined) | 37 | 65.3 | – | – | –
CCCCC(O)c1[nH]c2cc(C)c(C(=O)O)cc2c1CCc1ccccc1 (centres undefined) | 14.6 to 28.3 | 13.4 to 18.5 | 66 to 82 | 20 to 34 | Active
Cc1cc2[nH]c(C(O)CCc3ccccc3)c(CCc3ccccc3)c2cc1C(=O)O (centres undefined) | 36.7 | 34.7 | – | – | –

From ChEMBL document CHEMBL3879892, “Small molecule inhibition of PDZ-domain interaction” (2011)
